A short description of the test: In vivo testing: tethered device jetting insulin into the stomach wall. The arrangement: species or system Yorkshire pigs. The settings on record: jet of insulin into stomach wall, 0.5 Units per kilogram, three of the five device tests, samples until two hours after deployment. Here is the method:
Studies were performed by trained veterinary technicians at MIT's animal testing facilities. Yorkshire pigs weighing between 70 and 90 kg were used. All studies were terminal studies (meaning the animal was euthanized immediately afterward). […] The testing protocol is described further below.
This formulation procedure was carried out the morning or evening before each in vivo study, and the resulting solution it was stored at 4° C. until the time of administration.
The device was loaded with API and CO2 in the operating room where the animal was sedated and intubated. The device was deployed either by direct placement into the stomach through a laparotomy, or via an over-tube with an endoscope and snare. Of the five deployments performed with this device, the first three were performed by laparotomy, and the latter two by endoscope. Triggering generally occurred within 15 minutes and could be identified through recoil and minor foaming near the base of the device.
Blood samples were collected by ear catheter or femoral catheter. […] The blood-glucose level was monitored at each draw using commercial glucose monitoring strips. […] The samples were then subsequently analyzed with a custom Ezyme-linked immunosorbent assay (ELISA) for […].

On to insulin, for which the blood glucose levels result was “drop in blood glucose levels”.

The values above are taken from patent US20230263956A1, “INGESTIBLE DRUG DELIVERY DEVICE” (Massachusetts Institute of Technology, priority 2020, published 2023).
